Laboratory results from patent publication US20210283163A1, “COMPOSITIONS AND METHODS FOR THE TREATMENT OF ACUTE AND CHRONIC PRURITIS” (Duke University, priority 2018, published 2021).

What was measured:
hTRPA1 = hTRPA1 (Homo sapiens, UniProt O75762); test: Outside-out patch recordings, single channel activity, hTRPA1-expressing HEK293 cells; type: cell-based
Procedure: Inside-Out and Outside-Out Patch Clamp Recordings on HEK293 Cells. For inside-out recordings in TRPA1-expressing HEK293 cells, pipette resistance was 8-10 MΩ and, the internal solution contains: 126 mM K-gluconate, 10 mM NaCl, 1 mM MgCl2, 10 mM EGTA, 10 mM HEPES, and 2 Na-ATP (adjusted to pH 7.3 with KOH, osmolarity to 295-300 mOsm). The recordings were performed at room temperature in a bath solution (intracellular side) of 140 mM NaCl, 10 mM EGTA, 5 mM KCl, 2 mM CaCl2, 1 mM MgCl2, 10 mM HEPES, 10 mM glucose, adjusted to pH 7.4 with NaOH and osmolarity to 300-310 mOsm (Park et al., Neuron 2014, 82, 47-54). For comparison, outside-out recordings were also performed in TRPA1-expressing HEK293 cells in an extracellular solution of 140 mM NaCl, 5 mM KCl, 2 mM MgCl2, 10 mM HEPES, and 10 mM glucose (adjusted to pH 7.4 with NaOH and osmolarity to 300-310 mOsm). The internal solution contains 140 mM CsCl, 10 mM EGTA, 10 mM HEPES, and mM 2 Mg-ATP, adjusted to pH 7.3 with CsOH. Currents were low-pass filtered at 2 kHz and digitized at a sampling rate of 10 kHz with Digidata-1440A (Axon Instruments). The pClamp10 (Axon Instruments) software was used during experiments and data analysis. Opening and closing transitions of single channels were detected by using 50% of the threshold criterion. All events were carefully checked before the analysis. When superimposed openings were observed, the number of channels in the patch was estimated from the maximal number of superimposed openings. The single-channel open probability (Po) was determined using the following equation: Po=T′/T, where T′ is the total open time for a patch over time T.

mice = test: Evans blue extravasation, neurogenic inflammation in a hind paw; type: in vivo, mouse; settings: intraplantar, 10 μL; capsaicin 1 mM, AITC 5 mM, miR-711 1 mM
Procedure: Evans Blue Extravasation. To examine neurogenic inflammation in a hind paw (Han et al., Neuron 2016, 92, 1279-1293), mice were anesthetized with 5% isoflurane. Evans blue (50 mg/kg body weight) was given intravenously 10 min before neurogenic irritant application. […] Evans blue was extracted from the tissues by incubation in 400 μL formamide at 37° C. for 48 hr. Evans blue was quantified by measuring the optical density of the formamide extract at 620 nm. Absorbance was normalized to per gram of tissue weight.

mTRPA1 mutants (M1-M13) = test: Whole-cell patch clamp in CHO cells transfected with mutant mTrpa1 cDNAs (M1-M13); type: cell-based, mouse; settings: for effect of mutations on induced currents: M2, M3, M4, M5, and M10; for induced currents in mutants: mutants M1, M6, M7, M8, M9, and M12, AITC 50 μM, miR-711 10 μM
Procedure: Constructs. The cDNAs of mouse pcDNA3.1-Trpa1, pcDNA3.1-Trpv1, pcDNA3.1-Trpv2, pcDNA3.1-Trpv3, and pcDNA3.1-Trpv4 were kindly provided Dr. Sun Work Hwang from Korea University. Mouse Trpa1 cDNA was subcloned into pCGN-HA backbone (Addgene) using In-Fusion HD Cloning Kit (Clontech Laboratories, CA). Q5 Site-Directed Mutagenesis Kit was used to generate mTrpa1 mutant (M1-M13) based on pCGN-mTrpa1.
Cell Culture and Transfection. CD4^+ Myla cell line was cultured in RPMI 1640 media (GIBCO), supplemented with 2 mM Glutamine (GIBCO), 100 U/mL IL-2 (Sigma), 100 U/mL IL-4 (Sigma), and 10% human AB serum (Sigma). HuT 102 cell line was cultured in RPMI 1640 supplemented with pyruvate, HEPES, and 10% (v/v) fetal bovine serum (HyClone). HEK293-hTRPA1 stable cell line was cultured in MEM (GIBCO) containing 2 mM Glutamine, 4 μg/mL Blasticidin, 10% FBS (v/v). B16 and CHO cells were cultured in high glucose (4.5 g/L) Dulbecco's Modified Eagle's Medium (GIBCO) containing 10% (v/v) fetal bovine serum (GIBCO). Culture media were supplemented with 50 units/mL of penicillin and 50 μg/mL streptomycin, and cultures were maintained with 5% CO2 in 37° C. incubator. Transfection (2 μg cDNA) was performed with Lipofectamine™ 2000 Reagent (Invitrogen) at 80% confluency and the transfected cells were cultured in the same media for 48 hr before electrophysiological and biochemical studies.
Whole-Cell Patch Clamp Recordings in HEK293 Cells, CHO Cells, and DRG Neurons. Whole-cell patch clamp recordings were performed at room temperature using an Axopatch-200B amplifier (Axon Instruments) with a Digidata 1440B (Axon Instruments). In this study, we only examined small-diameter mouse DRG neurons (<25 μM) and small-diameter human DRG neurons (<55 μM). The patch pipettes were pulled from borosilicate capillaries (World Precision Instruments) using a P-97 Flaming/Brown micropipette puller (Sutter Instrument). Pipette resistance was 4-6 MΩ for whole-cell and outside-out recording. For inward current recordings in mouse and human DRG neurons, HEK293 cells, and CHO cells, the internal solution contains (in mM): 140 CsCl, 10 EGTA, 10 HEPES, and 2 Mg-ATP, adjusted to pH 7.3 with CsOH. Whole cell recordings were performed in an extracellular solution that contains (in mM): 140 NaCl, 5 KCl, 2 MgCl2, 10 HEPES, and 10 glucose, adjusted to pH 7.4 with NaOH and osmolarity to 300-310 mOsm. […] Action potential recordings were performed in small-diameter DRG neurons, with the following solutions: i) internal pipette solution contains: 126 mM K-gluconate, 10 mM NaCl, 1 mM MgCl2, 10 mM EGTA, 10 mM HEPES and 2 mM Na-ATP, adjusted to pH 7.4 with KOH and osmolarity to 295-300 mOsm), and ii) extracellular solution contains: 140 mM NaCl, 5 mM KCl, 2 mM MgCl2, 2 mM CaCl2, 10 mM HEPES, 10 mM glucose, adjusted to pH 7.4 with KOH.

hTRPA1, sequence (O75762 whole entry): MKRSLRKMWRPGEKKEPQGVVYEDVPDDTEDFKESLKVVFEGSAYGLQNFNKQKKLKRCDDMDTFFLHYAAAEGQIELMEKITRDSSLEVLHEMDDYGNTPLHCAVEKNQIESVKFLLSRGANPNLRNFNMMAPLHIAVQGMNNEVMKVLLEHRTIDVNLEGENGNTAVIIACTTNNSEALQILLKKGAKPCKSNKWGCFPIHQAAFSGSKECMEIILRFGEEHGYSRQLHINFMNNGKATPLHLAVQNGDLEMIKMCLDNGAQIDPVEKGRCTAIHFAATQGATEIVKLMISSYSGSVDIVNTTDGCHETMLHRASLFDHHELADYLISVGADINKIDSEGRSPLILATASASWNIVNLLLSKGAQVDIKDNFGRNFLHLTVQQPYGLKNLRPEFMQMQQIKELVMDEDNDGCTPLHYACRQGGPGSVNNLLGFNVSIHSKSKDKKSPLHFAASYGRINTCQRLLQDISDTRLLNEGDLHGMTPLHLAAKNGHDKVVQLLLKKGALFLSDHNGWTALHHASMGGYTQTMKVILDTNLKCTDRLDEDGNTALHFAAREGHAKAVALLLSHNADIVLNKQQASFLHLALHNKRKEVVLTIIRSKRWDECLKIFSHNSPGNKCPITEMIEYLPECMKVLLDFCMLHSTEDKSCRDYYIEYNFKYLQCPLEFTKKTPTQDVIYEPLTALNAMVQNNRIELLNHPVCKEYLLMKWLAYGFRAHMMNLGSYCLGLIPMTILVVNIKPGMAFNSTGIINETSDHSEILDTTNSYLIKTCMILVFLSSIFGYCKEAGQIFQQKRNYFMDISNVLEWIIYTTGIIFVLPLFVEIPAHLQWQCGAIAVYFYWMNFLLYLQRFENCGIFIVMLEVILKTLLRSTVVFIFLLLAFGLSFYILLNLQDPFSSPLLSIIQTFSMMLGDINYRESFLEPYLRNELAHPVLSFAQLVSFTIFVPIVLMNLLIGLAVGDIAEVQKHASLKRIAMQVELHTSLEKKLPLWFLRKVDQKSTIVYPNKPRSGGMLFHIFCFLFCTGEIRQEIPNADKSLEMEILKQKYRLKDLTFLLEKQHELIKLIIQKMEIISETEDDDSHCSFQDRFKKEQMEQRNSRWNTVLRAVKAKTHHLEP

CCC(=N\O)/C(C)=C/c1ccc(F)cc1 [A967079, (1E,3E)-1-(4-Fluorophenyl)-2-methyl-1-pentene-3-one oxime]
block of miR-711-induced single channel activity (hTRPA1; outside-out patch): completely blocked

C=CCN=C=S [AITC]
neurogenic inflammation in hind paws (Evans blue test) (mice): elicited robust neurogenic inflammation
AITC-induced currents in mutants (mTRPA1 mutants (M1-M13); M2, M3, M4, M5, M10, M11, and M13): unaltered
effect of mutations on induced currents (mTRPA1 mutants (M1-M13)): no effects
induced currents in mutants (mTRPA1 mutants (M1-M13)): substantial reductions

miR-711: mmu-miR-711: gggacccggggagagauguaag (SEQ ID NO: 5) (GGGACCCGGGGAGAGAUGUAAG; chemistry not given here)
neurogenic inflammation in hind paws (Evans blue test) (mice): failed to elicit neurogenic inflammation
single-channel opening events, extracellular surface (hTRPA1; bath application, miR-711 10 μM, AITC 50 μM, held at −60 mV): elicited single-channel opening events
duration of single channel opening (average open time) (hTRPA1; miR-711 10 μM versus AITC 50 μM): significantly shorter
single channel conductance (hTRPA1; mmu-miR-711 versus AITC): not significant
effect of mutations on induced currents (mTRPA1 mutants (M1-M13)): no effects
induced currents in mutants (mTRPA1 mutants (M1-M13)): substantial reductions
